Assay results as given in ChEMBL document CHEMBL6096682, “Discovery of D-Ring-Contracted Artemisinin as a Potent Hydrophobic Tag for Targeted Protein Degradation” (J Med Chem, 2025).
Active and inactive are the calls of the source. No cut-off for these calls is given here.

Columns and labels:
[1] = Toxicity in Balb/c mouse xenografted with human MCF7 cells assessed as effect on platelets count at 5 to 10 mg/kg, iv measured after 24 hrs; format: organism-based; conditions: in vivo, dose 5-10 mg/kg
Mus musculus = assay: In vivo induction of ER-alpha degradation in Balb/c mouse xenografted with human MCF7 cells assessed as decrease in ER-alpha expression in tumor at 5 to 10 mg/kg, iv administered every 3 days and measured on day 21 by immunofluorescence analysis; format: functional, organism-based; conditions: dose 5-10 mg/kg, time 21.0 day
[2] = molecular target: T1, Estrogen receptor (Homo sapiens) (UniProt P03372); assay: HyT degrader activity at ER-alpha in human MCF7 cells assessed as induction of ER-alpha degradation by measuring decrease in ER-alpha level at 10 uM incubated for 48 hrs by western blot analysis; format: cell-based; parameters: scale not given: the % may be the effect or the level left
T1 sequence (whole entry): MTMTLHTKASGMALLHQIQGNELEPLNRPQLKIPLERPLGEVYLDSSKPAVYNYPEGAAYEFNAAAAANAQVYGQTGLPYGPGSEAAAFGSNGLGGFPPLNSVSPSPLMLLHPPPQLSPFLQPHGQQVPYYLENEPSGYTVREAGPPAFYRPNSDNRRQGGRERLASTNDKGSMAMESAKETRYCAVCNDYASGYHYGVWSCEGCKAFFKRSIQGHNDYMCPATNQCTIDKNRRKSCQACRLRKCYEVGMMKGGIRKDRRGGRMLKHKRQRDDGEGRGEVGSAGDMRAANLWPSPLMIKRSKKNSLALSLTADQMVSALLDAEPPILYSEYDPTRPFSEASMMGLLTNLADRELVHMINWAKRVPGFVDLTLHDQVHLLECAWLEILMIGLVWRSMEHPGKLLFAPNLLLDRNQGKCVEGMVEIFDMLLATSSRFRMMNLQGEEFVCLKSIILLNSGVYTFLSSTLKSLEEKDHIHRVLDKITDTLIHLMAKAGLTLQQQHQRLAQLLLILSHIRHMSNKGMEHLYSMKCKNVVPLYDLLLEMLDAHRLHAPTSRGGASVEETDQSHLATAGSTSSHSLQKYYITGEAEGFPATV

MCF7 [3] = assay: Antitumor activity against human MCF7 cells xenografted in Balb/c mouse assessed as inhibition of tumor growth at 10 mg/kg, iv administered every 3 days and measured for 21 days; format: functional; conditions: MCF7, 504 h, time 21 day, read-out: TGI
[4] = molecular target: T1, Estrogen receptor (Homo sapiens); assay: HyT degrader activity at ER-alpha in human MCF7 cells assessed as induction of ER-alpha degradation by measuring decrease in ER-alpha level at 10 uM pretreated with NAE inhibitor, MLN4924 for 2 hrs followed by incubation with compound for 12 hrs by immunoblot analysis; format: cell-based
[5] = Nephrotoxicity in Balb/c mouse xenografted with human MCF7 cells assessed as effect on blood urea nitrogen level in serum at 5 to 10 mg/kg, iv measured after 24 hrs; format: toxicity, organism-based; conditions: in vivo, dose 5-10 mg/kg
[6] = molecular target: T1, Estrogen receptor (Homo sapiens); assay: HyT degrader activity at ER-alpha in human MCF7 cells assessed as induction of ER-alpha degradation by measuring decrease in ER-alpha level at 10 uM pretreated with HSP90 inhibitor, 17-AAG for 2 hrs followed by incubation with compound for 12 hrs by immunoblot analysis; format: cell-based
[7] = Toxicity in Balb/c mouse xenografted with human MCF7 cells assessed as effect on heart morphological changes at 5 to 10 mg/kg, iv measured after 24 hrs by Hematoxylin-Eosin staining based analysis; format: organism-based; conditions: in vivo, dose 5-10 mg/kg
[8] = molecular target: T1, Estrogen receptor (Homo sapiens); assay: HyT degrader activity at ER-alpha in human MCF7 cells assessed as induction of ER-alpha degradation at 10 uM incubated for 24 hrs by western blot analysis; format: cell-based
[9] = molecular target: T1, Estrogen receptor (Homo sapiens); assay: HyT degrader activity at ER-alpha in human MCF7 cells assessed as induction of ER-alpha degradation by measuring residual ER-alpha level at 10 uM pretreated with HSP70 inhibitor, VER-155008 for 2 hrs followed by incubation with compound for 12 hrs by immunoblot analysis; format: cell-based
MCF7 [10] = assay: Antiproliferative activity against human MCF7 cells overexpressing ER-alpha Y537S mutant assessed as reduction in cell viability incubated for 48 hrs by MTT assay relative to control; format: functional
[11] = Toxicity in Balb/c mouse xenografted with human MCF7 cells assessed as effect on kidneys morphological changes at 5 to 10 mg/kg, iv measured after 24 hrs by Hematoxylin-Eosin staining based analysis; format: organism-based; conditions: in vivo, dose 5-10 mg/kg
[12] = Hepatotoxicity in Balb/c mouse xenografted with human MCF7 cells assessed as effect on ALT level in serum at 5 to 10 mg/kg, iv measured after 24 hrs; format: toxicity, organism-based; conditions: in vivo, dose 5-10 mg/kg
[13] = Toxicity in Balb/c mouse xenografted with human MCF7 cells assessed as changes in body weight at 5 to 10 mg/kg, iv administered every 3 days and measured for 21 days; format: organism-based; conditions: in vivo, 504 h, dose 5-10 mg/kg, time 21 day
[14] = Toxicity in Balb/c mouse xenografted with human MCF7 cells assessed as effect on red blood cells count at 5 to 10 mg/kg, iv measured after 24 hrs; format: organism-based; conditions: in vivo, dose 5-10 mg/kg
MCF7 [15] = assay: Antiproliferative activity against human MCF7 cells overexpressing EGFR assessed as reduction in cell viability incubated for 48 hrs by MTT assay; format: functional, cell-based; conditions: MCF7, 48 h
[16] = Toxicity in Balb/c mouse xenografted with human MCF7 cells assessed as effect on hemoglobin content at 5 to 10 mg/kg, iv measured after 24 hrs; format: organism-based; conditions: in vivo, dose 5-10 mg/kg
[17] = Toxicity in Balb/c mouse xenografted with human MCF7 cells assessed as effect on liver morphological changes at 5 to 10 mg/kg, iv measured after 24 hrs by Hematoxylin-Eosin staining based analysis; format: organism-based; conditions: in vivo, dose 5-10 mg/kg
[18] = molecular target: Estrogen receptor beta (Homo sapiens) (UniProt Q92731); assay: HyT degrader activity at ER-beta in human MCF7 cells assessed as induction of ER-beta degradation by measuring decrease in ER-beta level at 1 to 10 uM incubated for 24 hrs by immunoblot analysis; format: cell-based; conditions: dose 1-10 µM
[19] = molecular target: T1, Estrogen receptor (Homo sapiens); assay: HyT degrader activity at ER-alpha in human MCF7 cells assessed as induction of ER-alpha degradation by measuring decrease in ER-alpha level at 10 uM pretreated with 26S proteasome inhibitor, MG-132 for 2 hrs followed by incubation with compound for 12 hrs by immunoblot analysis; format: cell-based
MCF7 [20] = assay: Antiproliferative activity against human MCF7 cells overexpressing EGFR assessed as reduction in cell viability incubated for 48 hrs by MTT assay relative to control; format: functional
[21] = molecular target: T1, Estrogen receptor (Homo sapiens); assay: HyT degrader activity at ER-alpha in human MCF7 cells assessed as induction of ER-alpha degradation by measuring residual ER-alpha level at 10 uM pretreated with HSP70 inhibitor, VER-155008 and HSP90 inhibitor, 17-AAG for 2 hrs followed by incubation with compound for 12 hrs by immunoblot analysis; format: cell-based
MCF7 [22] = assay: Antitumor activity against human MCF7 cells xenografted in Balb/c mouse assessed as tumor volume at 10 mg/kg, iv administered every 3 days and measured for 21 days (reference value: 165.5 mm3); format: functional; conditions: time 21 day
[23] = molecular target: T1, Estrogen receptor (Homo sapiens); assay: HyT degrader activity at ER-alpha in human MCF7 cells assessed as induction of ER-alpha degradation by measuring decrease in ER-alpha level at 10 uM incubated for 48 hrs followed by drug wash-out and measured after 72 hrs by western blot analysis; format: cell-based
MCF7 [24] = assay: Antitumor activity against human MCF7 cells xenografted in Balb/c mouse assessed as reduction in tumor weight at 5 to 10 mg/kg, iv administered every 3 days and measured on day 21; format: functional, organism-based; conditions: dose 5-10 mg/kg, time 21.0 day

Estrogen receptor beta (Homo sapiens), sequence (Q92731 whole entry): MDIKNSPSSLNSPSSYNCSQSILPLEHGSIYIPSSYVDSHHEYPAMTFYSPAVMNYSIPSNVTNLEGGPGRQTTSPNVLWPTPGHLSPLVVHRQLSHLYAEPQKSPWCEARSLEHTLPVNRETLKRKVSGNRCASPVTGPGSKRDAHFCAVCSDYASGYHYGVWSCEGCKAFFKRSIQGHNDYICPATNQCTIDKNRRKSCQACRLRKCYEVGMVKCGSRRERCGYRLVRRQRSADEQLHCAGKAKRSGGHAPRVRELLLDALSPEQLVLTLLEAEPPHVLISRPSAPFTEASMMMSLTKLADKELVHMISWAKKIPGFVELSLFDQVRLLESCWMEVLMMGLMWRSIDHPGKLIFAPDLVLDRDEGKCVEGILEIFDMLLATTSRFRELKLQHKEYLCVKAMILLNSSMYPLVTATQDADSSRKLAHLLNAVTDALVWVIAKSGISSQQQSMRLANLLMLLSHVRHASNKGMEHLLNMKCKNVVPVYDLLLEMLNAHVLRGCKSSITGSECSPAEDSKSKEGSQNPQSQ

C[C@@H]1CCC2[C@]34OO[C@](C)(CCC13)O[C@@H]4O[C@]2(C)C(=O)NCCCOc1ccc(C(=O)c2c(-c3ccc(O)cc3)sc3cc(O)ccc23)cc1 (stereo not given in full)
Activity [1]: Non-toxic
Activity (Mus musculus): Active
Activity [2]: > 99%
inhibition in vivo at 10 mg/kg (MCF7 [3]): 112%
Activity [4]: inactive
Activity [5]: Non-toxic
Activity [6]: inactive
Activity [7]: Non-toxic
Activity [8]: 83.1%
Activity [9]: 71.9%
inhibition (INH) (MCF7 [10]): 63.6%
Activity [11]: Non-toxic
Activity [12]: Non-toxic
Activity [13]: Non-toxic
Activity [14]: Non-toxic
IC50 (MCF7 [15]): 4.65 µM
Activity [16]: Non-toxic
Activity [17]: Non-toxic
Activity [18]: Active
Activity [19]: inactive
inhibition (INH) (MCF7 [20]): 56.7%
Activity [21]: 91%
Activity (MCF7 [22]): 65.1 mm3
Activity [23]: inactive
Activity (MCF7 [24]): Active
